Measurements published in patent EP4772500A1, “NOVEL ISOXAZOLE COMPOUND AS TM4SF5-SPECIFIC INHIBITOR AND USE THEREOF” (Seoul National University R&DB Foundation, priority 2023, dated 2025).

Experiments:
SNU449-TM4SF5 cells = test: qRT-PCR of cytokines/chemokines, fibrosis and T/NK cell related factors; assay type: cell-based, human; conditions: 2.5 µM, 24 hours, SNU449-TM4SF5 (FIG. 8e-g)
Method: After disrupting cells or tissues using Qiazol (Qiagen, USA), chloroform was added thereto, and centrifugation was performed at 12,000x g and 4°C for 15 minutes for phase separation, followed by separating the upper […] layer. After adding isopropanol to the separated […] layer to precipitate RNA, it was washed with 70% ethanol. An RNA pellet was separated by centrifugation at 7,500x g for 5 minutes, and ethanol was evaporated for 10 minutes, followed by solubilization in 30 µl of DEPC-water. The solubilized RNA was reverse-transcribed using a reverse transcription kit (Toyobo, Japan) after removing gDNA to obtain cDNA. For the obtained cDNA, expression was measured by real-time PCR (Bio-Rad, USA) using 2x Eva green master mix (Labopass, Republic of Korea) and 0.4 µM forward/reverse primers. The expression level was calculated using Pfaffl's modified delta-delta Ct method.
Normal 22-week-old C57BL/6 mice were randomly divided into a normal chow diet (NCD) group and a Methionine-Choline Deficient (MCD) diet group, which is a non-alcoholic steatohepatitis (NASH) induction diet, with 3 to 6 mice per group, and were allowed free access to the diets for 4 weeks. Simultaneously, vehicle (DMSO) or ST-2-001 at a concentration of 5 mg/kg was treated twice a week per animal via intraperitoneal injection (IP). […]

SNU449T7 cells = test: Liver-orthotopic xenograft model of TM4SF5-expressing cell line; assay type: in vivo, BALB/c-Nude mice
Method: The next day, the cells were detached by treating with a T/E (Trypsin/EDTA) solution and centrifuged at 150x g for 3 minutes to obtain a pellet. Thereafter, the supernatant was removed, leaving only the pellet. After mixing with matrigel matrix (CORNING) such that the final concentration of EGF was 50 ng/µl, the cell pellet was prepared by resuspension in the mixture of EGF and matrigel. Then, 5x10^5 cells/20 µl were directly injected once into the liver of 6-week-old male BALB/c-Nude mice. At this time, the animals were anesthetized by inhalation with […] isoflurane and injected. From one week after the cell injection, drug ST-5-002 was intraperitoneally injected at 5 mg/kg twice a week. After injecting the drug for a total of 6 times over 3 weeks, the animals were sacrificed at the 4th week of cell injection, and liver tissues were obtained and analyzed.
(a-d) A liver-orthotopic xenograft model was established by directly injecting 5x10^5 SNU449T7 cells into the livers of 6-week-old male BALB/c-Nude mice (n=9), which are deficient in T and B cells but still capable of activating NK cell functions. Starting one week after the cell injection, the drug ST-5-002 was intraperitoneally injected at 5 mg/kg twice a week (a). After a total of 6 injections over 3 weeks, the animals were sacrificed at the 4th week of cell injection, and liver tissues were obtained and images of the livers were taken (b). Body weight was measured every week during the drug injections. Meanwhile, although cancer formation occurred in several places in the liver tissue, the cancer masses were […], and since it was practically difficult to measure the size or volume of small cancer masses due to time constraints for tissue specimen processing, the volume of the largest cancer mass was measured for each liver tissue. The tumor volumes calculated from n=7 liver tissues, excluding the maximum and minimum values, are shown (c). (d) For a portion of the liver tissues, the expression level, distribution, and localization of each factor, as well as the degree of damage to the liver cancer tissue, were confirmed through immunohistochemistry or H&E staining for the given protein factors.
(a-b) As in FIG. 20, a liver-orthotopic xenograft model was established by directly injecting 5x10^5 SNU449T7 cells into the livers of 6-week-old male BALB/c-Nude mice (n=9), which are deficient in T and B cells but still capable of activating NK cell functions. Starting one week after the cell injection, the drug ST-5-002 was intraperitoneally injected at 5 mg/kg twice a week. (b-d) After the end of the experiment, for a portion of the obtained liver tissues, the expression level, distribution, and localization of SLAMF7, SLAMF6, NKG2D, PD-L1, and PD-1 factors, as well as the degree of liver cancer tissue, were confirmed through immunohistochemistry.

[1] = mouse xenograft experiment, liver tissue extracts, Western blotting (FIG. 13e)

Row | SMILES | mRNA levels of inflammation-related cytokines/chemokines, liver fibrosis factors, and factors related to T cell or NK cell natural killer activation (SNU449-TM4SF5 cells) | inhibitory effect on liver cancer formation (SNU449T7 cells; 5 mg/kg IP twice a week, 6 times, images (FIG. 20b)) | distribution of cells highly expressing PD-L1 (SNU449T7 cells; immunohistochemistry (FIG. 22e)) | infiltration of PD-1-expressing cells (SNU449T7 cells; immunohistochemistry (FIG. 22d)) | expressions of Ki67, AFP, F4/80, CCL2 and CCL20, and laminin γ2 (SNU449T7 cells; immunohistochemistry of liver tissue (FIG. 20d)) | distribution of cells highly expressing SLAMF7 (SNU449T7 cells; immunohistochemistry, interface of small tumors (FIG. 22b)) | degree of staining for SLAMF6 and NKG2D (SNU449T7 cells; immunohistochemistry, small cancerous areas (FIG. 22c)) | tumor volume (SNU449T7 cells; largest cancer mass per liver, 28th day, vs vehicle (FIG. 20c)) | SLAMF6 expression (SNU449T7 cells; [1]) | TIGIT expression level (SNU449T7 cells; [1])
1 | COc1ccc(-c2cc(-c3ccc(NC(C)=O)cc3)no2)cc1 [ST-2-001, N-(4-(5-(4-methoxyphenyl)isoxazole-3-yl)phenyl)acetamide] | inhibited | – | – | – | – | – | – | – | – | –
2 | Cc1ccc(C(=O)Nc2ccc(-c3cc(-c4ccc(O)cc4)no3)cc2)cc1 [ST-5-002, N-(4-(3-(4-hydroxyphenyl)isoxazole-5-yl)phenyl)-4-methylbenzamide] | – | distinct | scattered and distributed at a low level inside the tumor | scattered and distributed without restriction | significantly lower | infiltrated and were distributed or localized inside the tumor | further increased inside the tumor area | significantly reduced | increased | lowered
